Assay results reported in US10517913B2, “Composition for prevention, alleviation, or treatment of peripheral neuropathy comprising Lithospermi Radix extract as an effective component” (priority 2015, dated 2019).
One block for each compound: values may come before it.

Assays:
[1] = test system: dorsal root ganglion (DRG) neurons of peripheral neuropathic animals induced by oxaliplatin; assay: Morphological cell analysis of dorsal root ganglion neurons; format: in vivo, C57BL/6 mice
Text: (§1) In the present invention, an animal model having peripheral neuropathy was induced by oxaliplatin. Eight-week old male C57BL/6 mice were purchased from the OrientBio. Following 1 week acclimation period in a cage in an animal test room, the base line (BL) of responses of experimental animals to 3 times of mechanical stimulations applied to the right hind footpad of the animal using von Frey filament hair. Then, the animals were divided into different groups (N=8 animals/group). Peripheral neuropathy was induced by injection of 5 mg/kg oxaliplatin through tail veins of animals (once a week, 2 times for 2 weeks, i.e., 10 mg/kg oxaliplatin in total). Oxaliplatin was purchased from the LC Laboratories.
(§2) The specimens were prepared to histologically determine the protective effect of the Lithospermi Radix extract (WLR) against neuronal damage in peripheral neuropathic animals induced by oxaliplatin. Specifically, the animal was anaesthetized by intraperitoneal injection of sodium pentobarbital (50 mg/kg), and then, blood was removed by perfusion of 0.9% physiological saline through the aorta via left ventricle. Following fixation by perfusion of 4% paraformaldehyde solution buffered with 0.1 M phosphate, the 4th to 6th lumbar spinal cords, dorsal root ganglia, and the hind footpad skins were removed. The tissues were further fixed in the same fixation solution as above. The paraffin-embedded tissues were sectioned at a 4 μm thickness. The slices were mounted on a glass slide, dried, and then, kept at room temperature until use.
Dorsal root ganglions were cut out, sectioned into slices with 4 μm thickness and then, subjected to Azan-Mallory trichrome staining. The nucleoli in the stained slice were examined under an optical microscope. Among the neurons having discernible nucleoli, the number of neurons having eccentric nucleoli or multinucleolated nucleus was expressed as a percentage of the total neurons in a viewing area.
Specifically, peripheral neuropathy was induced in male C57BL/6 mice by oxaliplatin (10 mg/kg) according to [Materials and Methods 4]. After that, the mice were orally administered 6 times per week with 250 mg/kg of a Lithospermi Radix extract (WLR) prepared in [Materials and Methods 1] or 0.5% carboxymethyl cellulose (CMC) as a negative control. In addition, 100 mg/kg amifostine was intraperitoneally administered 2 times per week as a positive control. After drug administration for 2 weeks, dorsal root ganglion (DRG) was cut out according to [Materials and Methods 6-1]. Using the obtained specimen, morphological change of nucleus and nucleoli in the dorsal root ganglion (DRG) neurons was observed according to [Materials and Methods 6-4].

[2] = test system: astrocytes and microglial cells in spinal cord of peripheral neuropathic animals induced by oxaliplatin; assay: Immunohistological analysis of glial cells (GFAP, Iba-1) in lumbar spinal cord; format: in vivo, C57BL/6 mice
Text: as §1, §2
The slice of spinal cord with 4 μm thickness was subjected to immunofluorescence staining using antibodies against GFAP and Iba-1 which are astrocyte and microglial cell markers, respectively. After removal of paraffin and hydration, the slice was immersed in citrate buffer solution (Vector Lab., USA) for 10 minutes in a microwave to recover antigenicity and increase reactivity. […]
The activity of the glial cells was expressed by the ratio (%) of the area of stained cells relative to the viewing area under a fluorescence microscope. The fluorescence microscopic images were analyzed compared to the control treatment using a software (Cellsense, Olympus).
Specifically, peripheral neuropathy was induced in male C57BL/6 mice by oxaliplatin (10 mg/kg) according to [Materials and Methods 4]. […] Using the obtained specimen, activation of astrocytes and microglial cells in dorsal horn areas of the lumbar spinal cord of the animals was measured by detecting GFAP and Iba-1 marker proteins, respectively, according to [Materials and Methods 6-2]. Distribution of intraepidermal nerve fiber (IENF) in the hind footpad skin was measured by detecting PGP9.5 marker protein according to [Materials and Methods 6-3].

[3] = test system: intraepidermal nerve fiber (IENF) of peripheral neuropathic animals induced by oxaliplatin; assay: Quantitative histological analysis of intraepidermal nerve fiber (PGP9.5) in hind footpad skin; format: in vivo, C57BL/6 mice
Text: as §1, with “Laboratories. […]” for “Laboratories.”
The slice of hind footpad skin with 4 μm thickness was subjected to immunofluorescence staining using a PGP9.5 antibody, a marker for IENF in skin. […] The expression level of intraepidermal nerve fibers was expressed by the number of fluorescence-stained nerves in epidermis which were stemmed from dermis per field length of the basal membrane of epidermis (IENF/mm) within a viewing area under a fluorescence microscope. The fluorescent microscopic images were analyzed compared with control treatment using a software (Cellsense, Olympus). […]

CYP1A2 = assay: Induction of CYP1A2 gene expression in HepaRG (real-time PCR); format: in vitro ADME, human; conditions: 50 μM omeprazole (positive control), 24 hours
Description: (§3) HepaRG was purchased from the Thermo Fisher Scientific. The cells were used immediately after purchase without any subculture. A William's medium E basal medium supplemented with Thaw, Plate & General Purpose Supplements was used for general cell culture. A William's medium E basal medium supplemented containing Induction Medium Supplements was used for induction experiment. The cells were cultured in a 24-well culture plate coated with collagen type I in an incubator at 37° C., 5% CO2. All culture media and additives used for HepaRG cell culture were purchased from the Thermo Fisher Scientific.
(§4) According to [Materials and Methods 3-4], human hepatoma cell line (HepaRG) were plated at 5×10^5 cells/ml in a 24-well plate coated with collagen type I and cultured for 72 hours at 37° C., 5% CO2. Then, the cells were treated for 24 hours with a positive control drug or with a Lithospermi Radix extract (WLR) at concentrations of 10, 20, 100, and 500 μg/ml. For a positive control drug, 50 μM omeprazole was used for CYP1A2 and CYP2B6, and 10 μM rifampicin was used for CYP3A4 and P-gp. Distilled water was used as a negative control. After 24 hours, total RNA was extracted using an Easy-Spin™ Total RNA extraction kit (iNtRON Biotechnology). cDNA was synthesized from total RNA (500 ng) using oligo dT and iScript cDNA synthesis kit (Bio-Rad). […]

CYP2B6 = assay: Induction of CYP2B6 gene expression in HepaRG (real-time PCR); format: in vitro ADME, human; conditions: 50 μM omeprazole (positive control), 24 hours
Description: as §3, §4

PC-12 cells [4] = assay: NGF-induced neurite growth, quantitative image analysis; format: cell-based; conditions: 200 nM oxaliplatin, NGF 100 ng/ml, 3 days
Description: (§5) PC-12 was purchased from the ATCC (USA). The cells were cultured in a 100 mm cell culture dish coated with collagen type I in an incubator at 37° C., 5% CO2, using a DMEM basal medium supplemented with 5% non-heat inactivated fetal bovine serum (FBS), 10% heat inactivated horse serum (HS), 100 unit/ml penicillin, and 100 μg/ml streptomycin. The basal medium, sera, and other additives were purchased from the Thermo Fisher Scientific.
Specifically, PC-12 cells cultured according to [Materials and Methods 3-1] were evenly plated at 1×10^4 cells/well on a 24-well plate coated with collagen type IV in a DMEM growth medium where the cells were allowed to adhere on the bottom of the plate. After 12 hours, the medium was exchanged with a serum-free DMEM medium containing 100 ng/ml nerve growth factor (NGF) to induce neurite growth. The cells were treated with 200 nM oxaliplatin (Oxal) to induce neurotoxicity. Cells were co-treated with the Lithospermi Radix extract (WLR) prepared according to [Materials and Methods 1] at concentrations of 25 and 100 μg/ml, and amifostine (Ami) at 500 μM as a positive control. After 3 days, the ratios of cells forming neurites and the lengths of the neurites were quantified using image analysis under an optical microscope.

[5] = test system: human lung cancer cells (A549); assay: Drug-herb interaction with oxaliplatin cytotoxicity (Ez-Cytox), A549; format: cell-based; conditions: oxaliplatin 0 to 100 μg/ml alone (No treat), 72 hours
Description: (§6) A549 and HCT116 cells were purchased from the ATCC (USA). They were cultured in a 100 mm cell culture dish in an incubator at 37° C., 5% CO2, using an RPMI1640 basal medium supplemented with 10% heat inactivated FBS, 100 unit/ml penicillin, and 100 μg/ml streptomycin, and then used for in vitro tests. The basal medium, serum, and other additives were purchased from the Thermo Fisher Scientific.
(§7) Specifically, human lung cancer cells (A549) and human colon cancer cells (HCT116) were cultured according to [Materials and Methods 3-3]. The cells were plated in a 96-well culture dish at 5,000 cells per well. After 24 hours, the cells were simultaneously treated with serially diluted oxaliplatin (0 to 100 μg/ml) and the Lithospermi Radix extract (0(PBS), 10, 30, 100 μg/ml) prepared according to [Materials and Methods 1]. The cell only treated with oxaliplatin was served as a negative control. After 72 hours, the cell viability (%) was measured using Ez-Cytox assay kit. The rate of cell death (% death) caused by oxaliplatin was expressed by (100−cell viability (%)).

[6] = test system: human colon cancer cells (HCT116); assay: Drug-herb interaction with oxaliplatin cytotoxicity (Ez-Cytox), HCT116; format: cell-based; conditions: oxaliplatin 0 to 100 μg/ml alone (No treat), 72 hours
Description: as §6, §7

PC-12 cells [7] = assay: Neurite outgrowth assay kit (NS225), qualitative analysis; format: cell-based; conditions: 200 nM oxaliplatin, NGF 100 ng/ml, 48 hours
Description: as §5
The neuroprotective effect of the Lithospermi Radix extract of the present invention was determined using a neurite outgrowth analysis kit (NS225, Millipore) with 1 μm pore-sized membrane.
Specifically, PC-12 was cultured according to [Materials and Methods 3-1] for 72 hours in a DMEM low serum-differentiation medium supplemented with 1% horse serum, 100 unit/ml penicillin, 100 μg/ml streptomycin, and 100 ng/ml nerve growth factor (NGF). The membrane with 1 μm pores was coated by immersing it in a 24-well plate containing a 10 μg/ml collagen solution in an amount of 400 μl/well for 2 hours at 37° C. The collagen-coated membrane was transferred to a well containing a 600 μl of differentiation medium, and then, the differentiated PC-12 cells for 72 hours were plated at 75,000 cells/100 μl/membrane. The cells were treated with 200 nM oxaliplatin to induce neurotoxicity. […]

P-gp = assay: Induction of P-gp gene expression in HepaRG (real-time PCR); format: in vitro ADME, human; conditions: 10 μM rifampicin (positive control), 24 hours
Description: as §3, §4

[8] = after oxaliplatin 10 mg/kg, WLR 250 mg/kg oral 6 times per week or amifostine 100 mg/kg i.p. 2 times per week, 2 weeks
[9] = oxaliplatin 10 mg/kg, lumbar spinal cord dorsal horn

SMILES: NCCCNCCSP(=O)(O)O [amifostine]
oxaliplatin-induced morphological change: DRG neurons having eccentric nucleoli [1, 8]: reduced to the same extent | oxaliplatin-induced morphological change: number of neurons having multinucleolated nucleus [1, 8]: decreased with statistical significance | oxaliplatin-increased number of activated astrocytes (GFAP positive cells) [2, 8]: reduced to the same extent | oxaliplatin-increased number of activated microglial cells (Iba-1 positive cells) [2, 8]: reduced to the same extent | oxaliplatin-reduced densities of intraepidermal nerve fibers in hind footpad skin [3, 8]: recovered

expression of CYP1A2 (CYP1A2): effectively enhanced | expression of CYP2B6 (CYP2B6): effectively enhanced
SMILES: COc1ccc2[nH]c([S+]([O-])Cc3ncc(C)c(OC)c3C)nc2c1 (centres unmarked) [omeprazole]

SMILES: O=C1[O][Pt]2([NH][C@@H]3CCCC[C@H]3[NH]2)[O]C1=O [oxaliplatin]
neurite growth induced by nerve growth factor (NGF) (PC-12 cells [4]): inhibited | growth of cancer cells [5]: inhibited | growth of cancer cells [6]: inhibited | frequency of DRG neurons having eccentric nucleoli ([1]; oxaliplatin 10 mg/kg): increased | frequency of DRG neurons having multinucleolated nucleus ([1]; oxaliplatin 10 mg/kg): increased | number of activated astrocytes (GFAP positive cells) [2, 9]: increased | number of activated microglial cells (Iba-1 positive cells) [2, 9]: increased | densities of intraepidermal nerve fibers in hind footpad skin ([3]; oxaliplatin 10 mg/kg): reduced | Nerve growth factor-induced neurite growth (PC-12 cells [7]): inhibited

SMILES: CO[C@H]1/C=C/O[C@@]2(C)Oc3c(C)c(O)c4c(O)c(c(/C=N/N5CCN(C)CC5)c(O)c4c3C2=O)NC(=O)/C(C)=C\C=C\[C@H](C)[C@H](O)[C@@H](C)[C@@H](O)[C@@H](C)[C@H](OC(C)=O)[C@@H]1C [rifampicin]
expression of P-gp (P-gp): effectively enhanced
